# From patent US10912815B2, “Inhibitors of mitochondrial fission and methods of use thereof” (The Board of Trustees of the Leland Stanford Junior …, priority 2011, dated 2021)
# Residues, ends and D or L forms follow the SMILES beside them.
# Key:
# [1] = biological target: Recombinant protein Drp1 (Homo sapiens, UniProt O00429); assay: In vitro GTPase assay, recombinant Drp1; type: biochemical; conditions: for inhibition in the GTPase activity of recombinant Drp1: recombinant Drp1 25 ng, 30 min incubation with peptide, FIG. 2A
# Recombinant protein Drp1, sequence (O00429 1-710 isoform O00429-3): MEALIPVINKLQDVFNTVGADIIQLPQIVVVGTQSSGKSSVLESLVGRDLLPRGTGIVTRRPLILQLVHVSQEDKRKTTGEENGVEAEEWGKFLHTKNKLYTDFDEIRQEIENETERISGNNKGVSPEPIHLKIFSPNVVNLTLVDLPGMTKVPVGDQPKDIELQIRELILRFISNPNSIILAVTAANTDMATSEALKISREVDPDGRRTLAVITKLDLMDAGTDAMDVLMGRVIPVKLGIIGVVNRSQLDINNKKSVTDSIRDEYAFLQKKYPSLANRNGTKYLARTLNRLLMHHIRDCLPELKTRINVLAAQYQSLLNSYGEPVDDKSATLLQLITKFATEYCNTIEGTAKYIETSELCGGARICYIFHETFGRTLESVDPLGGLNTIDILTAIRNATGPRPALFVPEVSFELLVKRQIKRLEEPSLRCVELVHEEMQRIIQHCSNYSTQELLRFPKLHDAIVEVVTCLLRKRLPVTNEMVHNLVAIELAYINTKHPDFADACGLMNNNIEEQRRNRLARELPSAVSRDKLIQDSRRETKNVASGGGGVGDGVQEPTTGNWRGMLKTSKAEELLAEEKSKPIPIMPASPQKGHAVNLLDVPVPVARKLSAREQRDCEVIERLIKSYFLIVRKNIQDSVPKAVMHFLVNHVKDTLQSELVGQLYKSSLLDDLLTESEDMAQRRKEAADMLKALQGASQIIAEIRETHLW
# Method: (§1) First, mitochondrial fission inhibitor constructs were tested to determine what, if any, effects each peptide had on enzyme (GTPase) activity. Recombinant protein Drp1, Mfn1, OPA1 or dynamin-1 (25 ng) was incubated with the indicated modulator peptides for 30 min. GTPase activity was assayed in vitro using a GTPase assay kit (Innova Biosciences, Littleton, USA, or Novus Biologicals, Littleton, Colo.) according to manufacturer's instructions.
# [2] = test system: isolated mouse liver mitochondria with Drp1 recombinant protein; assay: Superoxide production of isolated mouse liver mitochondria after addition of recombinant Drp1; type: biochemical; conditions: isolated mouse liver mitochondria 50 μg, Drp1 50 ng, P110 1 μM, p<0.05, n=3, FIG. 6C
# Method: Mitochondrial membrane potential was also determined using TMRM (tetramethylrhodamine methylester). Fifty μg of mitochondria were incubated with recombinant Drp1 (50 ng) followed by incubation with TMRM (0.5 μM) in the presence or absence of P110 (1 μM) or NAC (2.5 mM). Fluoresence detection was performed using black 96-well plates in a fluorescence microplate reader at 560 nm excitation and 690 nm emission and potential was assessed by quenching of the fluorescent signal. The data are presented as mean±S.E. of percentage relative to control mitochondria from three independent experiments (FIG. 6B, #, p<0.05 vs. control cells; *, p<0.05; **, P<0.01 vs. MPP+- or CCCP-treated cells). Isolated mouse liver mitochondria (50 μg) were incubated with Drp1 recombinant protein (50 ng) in the presence or absence of P110 (1 μM). A kinetic change of mitochondrial superoxide production was determined by using MITOSOX™ (red mitochondrial superoxide indicator). […] Mitochondrial membrane potential of isolated mouse liver mitochondria was determined by TMRM, as described above, in the indicated groups. […] Protein levels of cytochrome c in the mitochondria were determined by western blot analysis with anti-cytochrome c antibodies in the indicated groups (insert, FIG. 6D). Total ROS production was determined by staining SH-SY5Y cells with CM2HDCFA (1 μM […] at 37° C.) in the indicated groups. […]
# [3] = test system: isolated mouse liver mitochondria with Drp1 recombinant protein; assay: Membrane potential of isolated mouse liver mitochondria incubated with Drp1 (TMRM); type: biochemical; conditions: P110 1 μM, NAC 2.5 mM, FIG. 6D bottom
# Method: Mitochondrial membrane potential was also determined using TMRM (tetramethylrhodamine methylester). Fifty μg of mitochondria were incubated with recombinant Drp1 (50 ng) followed by incubation with TMRM (0.5 μM) in the presence or absence of P110 (1 μM) or NAC (2.5 mM). Fluoresence detection was performed using black 96-well plates in a fluorescence microplate reader at 560 nm excitation and 690 nm emission and potential was assessed by quenching of the fluorescent signal. The data are presented as mean±S.E. of percentage relative to control mitochondria from three independent experiments (FIG. 6B, #, p<0.05 vs. control cells; *, p<0.05; **, P<0.01 vs. MPP+- or CCCP-treated cells). Isolated mouse liver mitochondria (50 μg) were incubated with Drp1 recombinant protein (50 ng) in the presence or absence of P110 (1 μM). A kinetic change of mitochondrial superoxide production was determined by using MITOSOX™ (red mitochondrial superoxide indicator). The data are presented as mean±S.E. of percentage relative to the value at basal level from three independent experiments (FIG. 6C, #, p<0.05 vs. control mitochondria; *, p<0.05 vs. mitochondria with the addition of Drp1). Mitochondrial membrane potential of isolated mouse liver mitochondria was determined by TMRM, as described above, in the indicated groups. NAC (2.5 mM) was used as a positive control (FIG. 6D). Protein levels of cytochrome c in the mitochondria were determined by western blot analysis with anti-cytochrome c antibodies in the indicated groups (insert, FIG. 6D). Total ROS production was determined by staining SH-SY5Y cells with CM2HDCFA (1 μM […] at 37° C.) in the indicated groups. The data are presented as mean±S.E. of percentage relative to control group from three independent experiments (FIG. 6E, *, p<0.05 vs. either MPP+ or CCCP treated-group; #, p<0.05 vs. control group).
# The mitochondrial membrane potential of isolated mouse liver mitochondria was then measured in the presence or absence of P110.
# [4] = biological target: T1, Dnm1 (yeast Drp1) (Saccharomyces cerevisiae, UniProt P54861); conditions: yeast and mammals, by blocking Dnm1 polymerization; cited from earlier work
# T1 sequence (P54861 1-757): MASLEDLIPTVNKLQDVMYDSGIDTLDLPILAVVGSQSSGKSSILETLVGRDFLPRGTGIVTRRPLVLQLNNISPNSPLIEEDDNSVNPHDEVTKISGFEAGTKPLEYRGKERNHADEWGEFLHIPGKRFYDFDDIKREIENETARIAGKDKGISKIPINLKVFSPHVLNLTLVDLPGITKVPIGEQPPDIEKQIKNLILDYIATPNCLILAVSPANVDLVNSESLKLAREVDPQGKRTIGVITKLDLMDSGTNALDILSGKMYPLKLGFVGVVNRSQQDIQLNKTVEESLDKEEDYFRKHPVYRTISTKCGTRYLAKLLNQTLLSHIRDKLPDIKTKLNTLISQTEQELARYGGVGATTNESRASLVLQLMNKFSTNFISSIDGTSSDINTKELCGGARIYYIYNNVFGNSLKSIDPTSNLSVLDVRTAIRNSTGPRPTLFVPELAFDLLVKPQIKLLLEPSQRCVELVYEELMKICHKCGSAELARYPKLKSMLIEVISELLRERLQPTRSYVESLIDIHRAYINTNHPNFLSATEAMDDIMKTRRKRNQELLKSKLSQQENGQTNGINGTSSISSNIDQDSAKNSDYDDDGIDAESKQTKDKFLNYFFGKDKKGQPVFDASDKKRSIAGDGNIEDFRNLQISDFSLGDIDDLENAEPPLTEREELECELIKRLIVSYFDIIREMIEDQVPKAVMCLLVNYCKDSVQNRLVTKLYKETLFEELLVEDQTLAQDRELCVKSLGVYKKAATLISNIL
# [5] = test system: SH-SY5Y cells; conditions: peptides 1 μM each, MPP+ 2 mM for 24 hours, FIG. 9E
# Method: Cell viability of stressed SH-SY5Y cells was measured by MTT assay.
# In another experiment, Human SH-SY5Y cells were treated with Drp1 P108, P109 or P110 or Fis1 P111, P112 or P113 (0.5 μM) for 15 min followed by treatment with MPP+(1 mM for 24 hrs). The cell viability was then determined by MTT test.
# [6] = biological target: T2, Drp1 association with the mitochondria (Homo sapiens, UniProt O00429); assay: Association of recombinant Drp1 (GST-Drp1) with isolated mouse liver mitochondria; type: binding; conditions: peptide 1 μM, GST-Drp1, FIG. 2C
# T2 construct: GST (N); host or cells: recombinant GST-Drp1 of unstated origin; mitochondria from mouse liver tissue
# T2 sequence (O00429 1-710 isoform O00429-3): as the sequence (O00429 1-710 isoform O00429-3) above
# Method: If the peptides designed do represent PPI surfaces between Drp1 and Fis1, the peptides should inhibit the association of Drp1 with the mitochondria. To obtain isolated mitochondria, SH-5YSH cells were washed with cold phosphate-buffered saline (PBS) and incubated on ice in lysis buffer (250 mM sucrose, 20 mmol/L HEPES-NaOH, pH 7.5, 10 mmol/L KCl, 1.5 mmol/L MgCl2, 1 mmol/L EDTA, protease inhibitor cocktail, phosphatase inhibitor cocktail) for 30 minutes. Cells were scraped and then disrupted 10 times by repeated aspiration through a 25 gauge needle, followed by a 30 gauge needle. Mouse liver tissue was minced and ground by pestle in lysis buffer. The homogenates were spun at 800 g for 10 min at 4° C. and the resulting supernatants were spun at 10,000 g for 20 minutes at 4° C. The pellets were washed with lysis buffer and spun at 10,000 g again for 20 minutes at 4° C. The final pellets were suspended in lysis buffer containing 1% Triton X-100 and were mitochondrial-rich lysate fractions.
# Mitochondria isolated from mouse liver were incubated with recombinant Drp1 (GST-Drp1). Drp1 bound to mitochondrial preparation and only P110 (1 μM) reduced this association by >60% (p<0.01, FIG. 2C); peptide carrier TAT47-57 or the other Drp1-derived peptides had no effect. The mitochondrial membrane protein VDAC was used as marker and loading control.
# [7] = biological target: T3, Mfn1 (Homo sapiens, UniProt Q8IWA4); assay: In vitro GTPase assay, recombinant Mfn1; type: biochemical; conditions: p<0.05, n=3, FIG. 2F
# T3 sequence (Q8IWA4 1-741): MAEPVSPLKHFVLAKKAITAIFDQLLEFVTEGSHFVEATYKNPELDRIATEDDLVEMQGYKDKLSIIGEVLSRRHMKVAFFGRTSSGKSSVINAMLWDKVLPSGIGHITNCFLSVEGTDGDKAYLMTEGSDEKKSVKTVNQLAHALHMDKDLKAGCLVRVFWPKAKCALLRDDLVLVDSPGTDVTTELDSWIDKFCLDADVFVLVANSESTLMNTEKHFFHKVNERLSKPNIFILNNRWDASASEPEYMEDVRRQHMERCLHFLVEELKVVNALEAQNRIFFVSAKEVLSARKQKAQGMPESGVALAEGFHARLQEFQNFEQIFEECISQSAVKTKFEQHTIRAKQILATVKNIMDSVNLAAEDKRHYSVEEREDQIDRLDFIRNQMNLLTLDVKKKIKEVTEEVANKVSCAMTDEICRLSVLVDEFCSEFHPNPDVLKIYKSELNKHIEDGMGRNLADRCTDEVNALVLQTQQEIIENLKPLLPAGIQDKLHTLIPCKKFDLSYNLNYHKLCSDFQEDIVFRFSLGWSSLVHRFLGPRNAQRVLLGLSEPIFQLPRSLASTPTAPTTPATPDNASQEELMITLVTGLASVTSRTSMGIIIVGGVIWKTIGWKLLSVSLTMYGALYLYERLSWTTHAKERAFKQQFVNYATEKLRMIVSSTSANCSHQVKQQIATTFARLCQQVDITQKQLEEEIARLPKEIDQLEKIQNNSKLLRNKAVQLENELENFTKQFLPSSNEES
# Method: as §1
# [8] = biological target: T4, OPA1 (Homo sapiens, UniProt O60313); assay: In vitro GTPase assay, recombinant OPA1; type: biochemical; conditions: p<0.05, n=3, FIG. 2F
# T4 sequence (O60313 88-960): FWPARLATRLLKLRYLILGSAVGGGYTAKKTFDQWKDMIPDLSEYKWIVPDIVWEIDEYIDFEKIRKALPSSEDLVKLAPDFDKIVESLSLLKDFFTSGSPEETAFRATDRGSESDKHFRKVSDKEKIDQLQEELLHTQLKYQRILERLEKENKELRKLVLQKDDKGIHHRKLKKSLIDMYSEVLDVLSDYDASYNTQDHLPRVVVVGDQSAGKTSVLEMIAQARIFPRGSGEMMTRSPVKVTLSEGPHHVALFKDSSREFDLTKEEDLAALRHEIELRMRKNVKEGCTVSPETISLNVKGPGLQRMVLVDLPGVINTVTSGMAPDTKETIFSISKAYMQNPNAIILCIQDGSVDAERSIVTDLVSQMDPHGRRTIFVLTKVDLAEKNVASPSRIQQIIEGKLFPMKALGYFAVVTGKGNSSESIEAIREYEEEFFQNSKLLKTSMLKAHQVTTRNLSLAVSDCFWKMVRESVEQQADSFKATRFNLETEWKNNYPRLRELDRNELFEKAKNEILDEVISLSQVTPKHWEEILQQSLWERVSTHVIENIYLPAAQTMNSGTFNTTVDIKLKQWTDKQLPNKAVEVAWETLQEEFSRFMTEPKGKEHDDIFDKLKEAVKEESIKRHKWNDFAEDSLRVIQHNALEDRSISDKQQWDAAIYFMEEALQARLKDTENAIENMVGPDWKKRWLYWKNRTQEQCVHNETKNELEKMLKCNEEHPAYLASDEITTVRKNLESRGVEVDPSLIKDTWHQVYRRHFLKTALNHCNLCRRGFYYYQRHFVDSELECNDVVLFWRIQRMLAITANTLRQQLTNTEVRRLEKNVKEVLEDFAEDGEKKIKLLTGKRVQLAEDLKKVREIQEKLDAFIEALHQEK
# Method: as §1
compound,measurement,setting,value
"Drp1 K38A: dominant negative mutant of Drp1, which inhibits Drp1 GTPase activity and fission activity; positive control",inhibition in the GTPase activity of recombinant Drp1,[1],~70%
same,Drp1-induced ROS (superoxide) elevation in the mitochondria,[2],abolished
same,mitochondrial membrane potential (MMP) of isolated mitochondria after Drp1 addition,[3],similar
"CC(=O)N[C@@H](CS)C(=O)O [NAC, N-Acetyl cysteine, reference compound]",mitochondrial membrane potential (MMP) of isolated mitochondria after Drp1 addition,[3],prevented the dissipated MMP
N=C(N)NCCC[C@H](NC(=O)[C@H](CCCCN)NC(=O)[C@H](CCCCN)NC(=O)[C@H](CCCNC(=N)N)NC(=O)[C@H](CCCNC(=N)N)NC(=O)[C@H](CCC(N)=O)NC(=O)[C@H](CCCNC(=N)N)NC(=O)[C@H](CCCNC(=N)N)NC(=O)[C@@H](N)CCCNC(=N)N)C(=O)NCC(=O)N[C@@H](Cc1ccc(O)cc1)C(=O)NCC(=O)NCC(=O)N[C@@H](CCCCN)C(=O)NCC(=O)N[C@@H](CO)C(=O)N[C@@H](CCCCN)C(=O)N[C@@H](CCC(=O)O)C(=O)N[C@@H](CCC(=O)O)C(=O)N[C@@H](CCC(N)=O)C(=O)N[C@@H](CCCNC(=N)N)C(=O)N[C@@H](CC(=O)O)C(N)=O [P112] (H-RRRQRRKKRGYGGKGSKEEQRD-NH2),specifically inhibited Drp1 GTPase activity,"[1]; in vitro GTPase assay, n=3, first statement of b271",50%
same,inhibition in the GTPase activity of recombinant Drp1,[1],no significant effect
COc1cc(-n2c(=S)[nH]c3ccccc3c2=O)c(Cl)cc1Cl [Mdivi-1],mitochondrial division,[4],inhibits mitochondrial division
RRRQRRKKRGYGGELLPKG (RRRQRRKKRGYGGELLPKGS) [P113],inhibition in the GTPase activity of recombinant Drp1,[1],no significant effect
same,cell viability (MTT),[5],no significant effect
"TAT47-57: cell permeating TAT protein-derived peptide carrier, used alone as control peptide",reduction of association of Drp1 with mitochondrial preparation,[6],no effect
CC(C)C[C@H](NC(=O)[C@H](CCCCN)NC(=O)CNC(=O)CNC(=O)[C@H](Cc1ccc(O)cc1)NC(=O)CNC(=O)[C@H](CCCNC(=N)N)NC(=O)[C@H](CCCCN)NC(=O)[C@H](CCCCN)NC(=O)[C@H](CCCNC(=N)N)NC(=O)[C@H](CCCNC(=N)N)NC(=O)[C@H](CCC(N)=O)NC(=O)[C@H](CCCNC(=N)N)NC(=O)[C@H](CCCNC(=N)N)NC(=O)[C@@H](N)CCCNC(=N)N)C(=O)N[C@@H](CO)C(=O)N[C@@H](C)C(=O)N[C@@H](CCCNC(=N)N)C(=O)N[C@@H](CCC(=O)O)C(=O)N[C@@H](CCC(N)=O)C(=O)N[C@@H](CCCNC(=N)N)C(=O)N[C@@H](CC(=O)O)C(N)=O [P109] (H-RRRQRRKKRGYGGKLSAREQRD-NH2),inhibition in the GTPase activity of recombinant Drp1,[1],40%
same,GTPase activity of MFN1 (increased),[7],229%±10
same,GTPase activity of OPA1 (increased),[8],177%±13
